Measured values as given in patent publication US20090227601A1, “Bradykinin 1 Receptor Antagonists” (Amgen Inc., priority 2005, published 2009).
No end group written: not given here.

Tests used:
[1] = cited from earlier work
hB2 receptor = molecular target: T1, hB2 receptor (Homo sapiens, UniProt P30411); assay: In vitro Assay of hB2 Receptor Function using Calcium Flux; format: cell-based; conditions: recombinant CHO cells, antagonist IC50 against agonist at EC80
T1 construct: host or cells: CHO-K1
T1 sequence (P30411 1-391): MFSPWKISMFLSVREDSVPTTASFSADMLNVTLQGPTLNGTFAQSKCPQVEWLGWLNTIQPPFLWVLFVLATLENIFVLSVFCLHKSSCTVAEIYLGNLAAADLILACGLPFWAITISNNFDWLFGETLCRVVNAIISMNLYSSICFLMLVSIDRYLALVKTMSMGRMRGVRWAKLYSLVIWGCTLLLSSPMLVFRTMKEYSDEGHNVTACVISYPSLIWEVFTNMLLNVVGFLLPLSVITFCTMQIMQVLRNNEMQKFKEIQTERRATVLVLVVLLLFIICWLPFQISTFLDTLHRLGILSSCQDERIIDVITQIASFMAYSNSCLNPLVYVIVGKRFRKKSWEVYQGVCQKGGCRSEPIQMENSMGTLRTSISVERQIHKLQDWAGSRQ
Method: In vitro Assay of hB2 Receptor Function using Calcium Flux The intracellular calcium flux induced by hB2 receptor activation was analyzed using an hB2 recombinant cell line (CHO-K1) purchased from PerkinElmer (Catalog Number: RBHB2C000EA) on a fluorometric imaging plate reader (FLIPR). […] Culture medium was changed every other day. 24 h prior to the FLIPR assay, the hB2/CHO cells were washed once with PBS (Invitrogen) and 10 mL of Versene (1:5000, Invitrogen, Cat# 15040-066) was added to each flask. After 5 min incubation at 37° C., Versene was removed and cells were detached from the flask and resuspended in culture medium. Cells were counted and 25,000 cells/well were plated in 96-well black-sided clear bottom assay plates (Costar #3904). Cells were incubated in a 37° C. CO2 incubator overnight. The media was aspirated from the cells and replaced with 65 μL of dye-loading buffer. The loading buffer was prepared by diluting a stock solution of 0.5 mM Fluo-4 AM (Molecular Probes, dissolved in DMSO containing 10% [w/v] pluronic acid) to a concentration of 1 μM in Clear Dulbecco's Modified Eagle Medium (DMEM) containing 0.1% BSA, 20 mM HEPES, and 2.5 mM probenecid. The cells were dye-loaded for 1 h at RT. The excess dye was removed by washing the cells 2× with assay buffer. The assay buffer consists of Hank's Balanced Salt Solution (HBSS) containing 20 mM HEPES, 0.1% BSA, and 2.5 mM probenecid. After the wash cycles, a volume of 100 μL was left in each well, and the plate was ready to be assayed in the FLIPR System. […] The cell plate and the compound plates were loaded onto the FLIPR and during the assay, fluorescence readings are taken simultaneously from all 96 wells of the cell plate. Ten 1-second readings were taken to establish a stable baseline for each well, then 25 μL from the B1 antagonist plate was rapidly (50 μL/sec.) added. The fluorescence signal was measured in 1-second (1 min) followed by 6-second (2 min) intervals for a total of 3 min to determine if there is any agonist activity with the compounds.

Row | Compound | half-life of BK in plasma [1] | IC50 (hB2 receptor) [nM]
1 | RPPGFSPFR [BK, Bradykinin] | approximately 17 seconds | –
2 | Cc1ccc(S(=O)(=O)N2C=CNC(=O)[C@H]2CC(=O)N2C[C@@H](N)[C@H](c3ccccc3)C2)cc1 [T-3-10, (3R)-3-(2-((3S)-3-(amino)-4(R)-4-phenyl-1-pyrrolidinyl)-2-oxoethyl)-4-((4-methylphenyl)sulfonyl)-3,4-dihydro-2(1H)-pyrazinone] | – | 270
3 | Cc1ccc(S(=O)(=O)N2C=CNC(=O)[C@H]2CC(=O)N2CCCC2c2ccccc2)cc1 (stereo partly drawn) [T-3-43, (3R)-4-((4-methylphenyl)sulfonyl)-3-(2-oxo-2-(2RS-phenyl-1-pyrrolidinyl)ethyl)-3,4-dihydro-2(1H)-pyrazinone] | – | 2600
4 | Cc1ccc(S(=O)(=O)N2C=CNC(=O)[C@H]2CC(=O)N[C@@H]2CCCC[C@H]2C(C)(C)O)cc1 (mixture of isomers) [T-1-65, N-((1RS,2RS)-2-(1-hydroxy-1-methylethyl)cyclohexyl)-2-((2R)-1-((4-methylphenyl)sulfonyl)-3-oxo-1,2,3,4-tetrahydro-2-pyrazinyl)acetamide] | – | 2700
5 | Cc1ccc(S(=O)(=O)N2C=CNC(=O)[C@H]2CC(=O)N2CCCC2c2cc3ccccc3[nH]2)cc1 (stereo partly drawn) [T-3-50, (3R)-3-(2-(2-RS-(1H-indol-2-yl)-1-pyrrolidinyl)-2-oxoethyl)-4-((4-methylphenyl)sulfonyl)-3,4-dihydro-2(1H)-pyrazinone] | – | > 4000
6 | Cc1cc(S(=O)(=O)N2C=CNC(=O)[C@H]2CC(=O)N2CCC3(CCNC3)C2)c(C)cc1Cl (stereo partly drawn) [T-3-26, (3R)-4-((4-chloro-2,5-dimethylphenyl)sulfonyl)-3-(2-(2,7-diazaspiro[4.4]non-2-yl)-2-oxoethyl)-3,4-dihydro-2(1H)-pyrazinone] | – | 15
7 | Cc1cc(S(=O)(=O)N2C=CNC(=O)[C@H]2CC(=O)N2CCC(N3CCCCC3)CC2)c(C)cc1Cl [T-3-8, (3R)-3-(2-(1,4′-bipiperidin-1′-yl)-2-oxoethyl)-4-((4-chloro-2,5-dimethylphenyl)-sulfonyl)-3,4-dihydro-2(1H)-pyrazinone] | – | 270
8 | Cc1cc(S(=O)(=O)N2C=CNC(=O)[C@H]2CC(=O)N2CCC(CO)CC2)c(C)cc1Cl [T-3-15, (3R)-4-((4-chloro-2,5-dimethylphenyl)sulfonyl)-3-(2-(4-(hydroxymethyl)-1-piperidinyl)-2-oxoethyl)-3,4-dihydro-2(1H)-pyrazinone] | – | 940
9 | Cc1ccc(S(=O)(=O)N2C=CNC(=O)[C@H]2CC(=O)NC2CC(C)(C)N(C)C(C)(C)C2)cc1 [T-1-77, 2-((2R)-1-((4-methylphenyl)sulfonyl)-3-oxo-1,2,3,4-tetrahydro-2-pyrazinyl)-N-(1,2,2,6,6-pentamethyl-4-piperidinyl)acetamide] | – | 20
10 | CO[C@H]1CC[C@H](NC(=O)C[C@@H]2C(=O)NC=CN2S(=O)(=O)c2ccc(C)cc2)CC1 [T-1-30, N-(trans-4-(methyloxy)cyclohexyl)-2-((2R)-1-((4-methylphenyl)sulfonyl)-3-oxo-1,2,3,4-tetrahydro-2-pyrazinyl)acetamide] | – | 190
11 | Cc1ccc(S(=O)(=O)N2C=CNC(=O)[C@H]2CC(=O)NC2CCC(N3CCC(F)CC3)CC2(C)C)cc1 (mixture of isomers) [T-1-42] | – | 1980
12 | Cc1cc(S(=O)(=O)N2C=CNC(=O)[C@H]2CC(=O)N2CCC(CN3CCCC3)CC2)c(C)cc1Cl [T-3-18, (3R)-4-((4-chloro-2,5-dimethylphenyl)sulfonyl)-3-(2-oxo-2-(4-(1-pyrrolidinylmethyl)-1-piperidinyl)ethyl)-3,4-dihydro-2(1H)-pyrazinone] | – | 160
13 | Cc1ccc(C2CCN(C(=O)C[C@@H]3C(=O)NC=CN3S(=O)(=O)c3ccc(C)cc3)CC2)cc1 [T-3-48, (3R)-3-(2-(4-(4-methylphenyl)-1-piperidinyl)-2-oxoethyl)-4-((4-methylphenyl)-sulfonyl)-3,4-dihydro-2(1H)-pyrazinone] | – | 1600
14 | 2-((2R)-1-((4-chloro-2,5-dimethylphenyl)sulfonyl)-3-oxo-1,2,3,4-tetrahydro-2-pyrazinyl)-N-((4S)-3,3-dimethyl-4-piperidinyl)acetamide; and 2-((2R)-1-((4-chloro-2,5-dimethylphenyl)sulfonyl)-3-oxo-1,2,3,4-tetrahydro-2-pyrazinyl)-N-((4R)-3,3-dimethyl-4-piperidinyl)acetamide [T-1-48] | – | 400
15 | Cc1ccc(S(=O)(=O)N2C=CNC(=O)[C@H]2CC(=O)NC2CCN(CCc3ccccc3)CC2)cc1 [T-1-58, N-(1-(2-phenethyl)-4-piperidinyl)-2-((2R)-1-((4-methylphenyl)sulfonyl)-3-oxo-1,2,3,4-tetrahydro-2-pyrazinyl)acetamide] | – | 20
16 | Cc1ccc(S(=O)(=O)N2C=CNC(=O)[C@H]2CC(=O)NC2CCC3(CC2(C)C)OCCO3)cc1 (mixture of isomers) [T-1-111, N-((8RS)-7,7-dimethyl-1,4-dioxaspiro[4.5]dec-8-yl)-2-((2R)-1-((4-methylphenyl)-sulfonyl)-3-oxo-1,2,3,4-tetrahydro-2-pyrazinyl)acetamide] | – | 1.4
17 | Cc1cc(S(=O)(=O)N2C=CNC(=O)[C@H]2CC(=O)N2CCC(N3CCCC3)C(C)(C)C2)c(C)cc1Cl (mixture of isomers) [T-3-30, (3R)-4-((4-chloro-2,5-dimethylphenyl)sulfonyl)-3-(2-((4R/S)-3,3-dimethyl-4-(1-pyrrolidinyl)-1-piperidinyl)-2-oxoethyl)-3,4-dihydro-2(1H)-pyrazinone] | – | 61
18 | Cc1ccc(S(=O)(=O)N2C=CNC(=O)[C@H]2CC(=O)NC2CCN(c3ccccc3)CC2)cc1 [T-1-3, 2-((2R)-1-((4-methylphenyl)sulfonyl)-3-oxo-1,2,3,4-tetrahydro-2-pyrazinyl)-N-(1-phenyl-4-piperidinyl)acetamide] | – | 21
19 | N-((3R)-1-(1-methylethyl)-3-piperidinyl)-2-((2R)-1-((4-methylphenyl)sulfonyl)-3-oxo-1,2,3,4-tetrahydro-2-pyrazinyl)acetamide; and N-((3S)-1-(1-methylethyl)-3-piperidinyl)-2-((2R)-1-((4-methylphenyl)sulfonyl)-3-oxo-1,2,3,4-tetrahydro-2-pyrazinyl)acetamide [T-1-11] | – | 530
20 | N-((1R)-2,2-dimethyl-4-oxocyclohexyl)-2-((2R)-1-((4-methylphenyl)sulfonyl)-3-oxo-1,2,3,4-tetrahydro-2-pyrazinyl)acetamide; and N-((1S)-2,2-dimethyl-4-oxocyclohexyl)-2-((2R)-1-((4-methylphenyl)sulfonyl)-3-oxo-1,2,3,4-tetrahydro-2-pyrazinyl)acetamide [T-1-37] | – | 19
21 | Cc1ccc(S(=O)(=O)N2C=CNC(=O)[C@H]2CC(=O)NC2CCC(N3CCCC3)CC2(C)C)cc1 (mixture of isomers) [T-1-50] | – | 1.3
22 | Cc1ccc(S(=O)(=O)N2C=CNC(=O)[C@H]2CC(=O)N[C@H]2CC[C@@H](NC(C)C)CC2)cc1 [T-1-35, N-(cis-4-((1-methylethyl)amino)cyclohexyl)-2-((2R)-1-((4-methylphenyl)sulfonyl)-3-oxo-1,2,3,4-tetrahydro-2-pyrazinyl)acetamide] | – | 420
23 | Cc1ccc(S(=O)(=O)N2C=CNC(=O)[C@H]2CC(=O)NC2CC(=O)OC(C)(C)C2)cc1 (mixture of isomers) [T-1-67, N-((4RS)-2,2-dimethyl-6-oxotetrahydro-2H-pyran-4-yl)-2-((2R)-1-((4-methylphenyl)sulfonyl)-3-oxo-1,2,3,4-tetrahydro-2-pyrazinyl)acetamide] | – | 2200
